The source of these data is patent US9820989B2, “Method of treating conditions with kinase inhibitors” (Allergan, Inc., priority 2012, dated 2017).

The structures appear in SMILES notation. Some results are limits rather than exact numbers.

For this assay, the target named is PDGFRβ kinase (Homo sapiens (Human), UniProt P09619). The assay is described as follows: PDGFRβ Kinase Assay (biochemical, poly-Glu-Tyr ELISA). Conditions: purified cytoplasmic domain PDGFR-b protein, 36 μM ATP. As for the experimental part:
Biochemical PDGFRβ kinase assays were performed in 96 well microliter plates that were coated overnight with 75 μg of poly-Glu-Tyr (4:1) in 10 mM Phosphate Buffered Saline (PBS), pH 7.4. The coated plates were washed with 2 mls per well PBS+0.05% Tween-20 (PBS-T), blocked by incubation with PBS containing 1% BSA, then washed with 2 mls per well PBS-T prior to starting the reaction. Reactions were carried out in 100 μL reaction volumes containing 36 μM ATP in kinase buffer (50 mM Hepes buffer pH 7.4, 20 mM MgCl2, 0.1 mM MnCl2 and 0.2 mM Na3VO4). Test compounds were reconstituted in 100% DMSO and added to the reaction to give a final DMSO concentration of 5%. Reactions were initiated by the addition 20 ul per well of kinase buffer containing 200-300 ng purified cytoplasmic domain PDGFR-b protein (Millipore). […] The reaction was terminated by the addition of 100 μl of 2.5N H2SO4 to each well and read using a microplate ELISA reader set at 492 nm. IC50 values for compound inhibition were calculated directly from graphs of optical density (arbitrary units) versus compound concentration following subtraction of blank values.
IC50 values for test compounds were calculated from % inhibition of PDGF-BB stimulated responses in the absence of inhibitor.
Background: An ELISA detects its analyte on a solid surface through an enzyme-linked reagent.

Chain of PDGFRβ kinase (P09619 554-1106): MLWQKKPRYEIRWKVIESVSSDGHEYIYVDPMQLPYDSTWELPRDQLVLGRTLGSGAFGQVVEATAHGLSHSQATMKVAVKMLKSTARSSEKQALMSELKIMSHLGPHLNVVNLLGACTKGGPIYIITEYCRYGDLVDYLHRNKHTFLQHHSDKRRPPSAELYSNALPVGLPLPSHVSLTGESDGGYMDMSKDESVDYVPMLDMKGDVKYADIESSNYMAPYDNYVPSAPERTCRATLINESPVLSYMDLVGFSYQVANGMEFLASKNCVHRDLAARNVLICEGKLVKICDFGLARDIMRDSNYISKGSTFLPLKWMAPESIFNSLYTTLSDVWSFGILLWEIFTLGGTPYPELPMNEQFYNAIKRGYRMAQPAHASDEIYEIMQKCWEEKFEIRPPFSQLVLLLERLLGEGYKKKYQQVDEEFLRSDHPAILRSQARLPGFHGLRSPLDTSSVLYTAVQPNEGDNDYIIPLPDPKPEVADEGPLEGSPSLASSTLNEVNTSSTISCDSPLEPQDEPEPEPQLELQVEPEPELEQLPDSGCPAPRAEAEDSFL

As a reminder, the IC50 is the point on the concentration scale where inhibition reaches its midpoint. For `CC(C)c1ccc(NC(=O)c2cc(N3Cc4cnc(N)nc4C3)ccn2)cc1` [Example 83, 4-(2-amino-5,7-dihydro-6H-pyrrolo[3,4-d]pyrimidin-6-yl)-N-(4-isopropylphenyl)pyridine-2-carboxamide], the IC50 is over 10 µM.
